From ChEMBL document CHEMBL1201862, “PubChem BioAssay data set” (2004)
Values joined by “and” are separate entries in the source; they are usually repeats but may differ in a detail not shown here. Equal values may be shown once.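 Cultured in 96-well plates, cells were exposed to test compound for 48 hours across five concentrations. GI50 marks 50% less growth.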 Active and inactive are the calls of the source. Cut-off read from the data, not from the text of the source: active = GI50 up to about 1.1 µM and inactive = higher.

Assays:
Assay in all cases: growth of human tumour cells (NCI), 48 h
[1] = test system: IGROV-1
[2] = test system: CAKI-1
[3] = test system: HCT-15
[4] = test system: HCT-116
[5] = test system: SN12C
[6] = test system: MDA-N
[7] = test system: OVCAR-5
[8] = test system: MDA-MB-435
[9] = test system: U-251
[10] = test system: DU-145
[11] = test system: CCRF-CEM
[12] = test system: K562
[13] = test system: RPMI-8226
[14] = test system: SK-MEL-5
[15] = test system: OVCAR-3
[16] = test system: UACC-62
[17] = test system: 786-0
[18] = test system: SK-MEL-28
[19] = test system: A549
[20] = test system: MCF7
[21] = test system: HCC 2998
[22] = test system: OVCAR-8
[23] = test system: ACHN
[24] = test system: PC-3
[25] = test system: M14
[26] = test system: KM12
[27] = test system: HT-29
[28] = test system: SK-MEL-2
[29] = test system: HOP-62
[30] = test system: MOLT-4
[31] = test system: EKVX
[32] = test system: UO-31
[33] = test system: COLO 205
[34] = test system: SF-295
[35] = test system: SW-620
[36] = test system: LOX IMVI
[37] = test system: NCI-H23
[38] = test system: NCI/ADR-RES
[39] = test system: Malme-3M
[40] = test system: MDA-MB-231
[41] = test system: T47D
[42] = test system: SNB-75
[43] = test system: SF-539
[44] = test system: UACC-257
[45] = test system: Hs-578T
[46] = test system: HL-60
[47] = test system: RXF 393
[48] = test system: TK-10
[49] = test system: NCI-H460
[50] = test system: NCI-H522
[51] = test system: NCI-H226
[52] = test system: SF-268
[53] = test system: SR
[54] = test system: SNB-19
[55] = test system: HOP-92
[56] = test system: SK-OV-3

Question: With `Cc1cc(N)c2ccccc2[n+]1CCCCCCCCCCNc1cc(C)[n+](CCCCCCCCCC[n+]2c(C)cc(N)c3ccccc32)c2ccccc12` as the compound, how does the GI50 [1] read?
Answer: 1.35 µM (inactive)

Question: What about the GI50 [2] of the same compound?
Answer: 34.6 µM (inactive)

Question: What about the GI50 [3] of the same compound?
Answer: 1.75 µM

Question: What about the GI50 [4] of the same compound?
Answer: 1.35 µM (inactive)

Question: What about the GI50 [5] of the same compound?
Answer: 0.293 µM (active)

Question: And the GI50 [6]?
Answer: 0.333 µM (active)

Question: What about the GI50 [7] of the same compound?
Answer: 1.49 µM (inactive)

Question: And the GI50 [8]?
Answer: 427 nM (active)

Question: What about the GI50 [9] of the same compound?
Answer: 406 nM (active)

Question: And the GI50 [10]?
Answer: 1.75 µM (inactive)

Question: And the GI50 [11]?
Answer: 0.52 µM (active)

Question: What about the GI50 [12] of the same compound?
Answer: 0.4 µM (active)

Question: And the GI50 [13]?
Answer: 0.352 µM (active)

Question: And the GI50 [14]?
Answer: 439 nM (active)

Question: And the GI50 [15]?
Answer: 1.56 µM (inactive)

Question: And the GI50 [16]?
Answer: 0.608 µM (active)

Question: And the GI50 [17]?
Answer: 0.547 µM (active)

Question: What about the GI50 [18] of the same compound?
Answer: 528 nM (active)

Question: What about the GI50 [19] of the same compound?
Answer: 0.692 µM (active)

Question: And the GI50 [20]?
Answer: 682 nM (active)

Question: And the GI50 [21]?
Answer: 0.759 µM (active)

Question: And the GI50 [22]?
Answer: 1.61 µM (inactive)

Question: What about the GI50 [23] of the same compound?
Answer: 0.964 µM (active)

Question: What about the GI50 [24] of the same compound?
Answer: 1.02 µM (active)

Question: What about the GI50 [25] of the same compound?
Answer: 0.746 µM (active)

Question: What about the GI50 [26] of the same compound?
Answer: 0.618 µM (active)

Question: And the GI50 [27]?
Answer: 11.6 µM (inactive)

Question: What about the GI50 [28] of the same compound?
Answer: 1.41 µM (inactive)

Question: What about the GI50 [29] of the same compound?
Answer: 0.929 µM (active)

Question: And the GI50 [30]?
Answer: 1.01 µM (active)

Question: And the GI50 [31]?
Answer: 14.6 µM (inactive)

Question: What about the GI50 [32] of the same compound?
Answer: 1.86 µM (inactive)

Question: And the GI50 [33]?
Answer: 375 nM (active)

Question: And the GI50 [34]?
Answer: 1.32 µM (inactive)

Question: And the GI50 [35]?
Answer: 2.23 µM (inactive)

Question: And the GI50 [36]?
Answer: 1.79 µM (inactive)

Question: And the GI50 [37]?
Answer: 0.516 µM (active)

Question: Which GI50 [38] does the source give for `COc1cc(CNc2nc3cc(C(F)(F)F)ccc3nc2-c2ccccc2)cc(OC)c1OC` here?
Answer: 14.8 µM (inactive)

Question: And the GI50 [39]?
Answer: 21.3 µM (inactive)

Question: What about the GI50 [1] of the same compound?
Answer: 25.9 µM (inactive)

Question: And the GI50 [2]?
Answer: 39.4 µM (inactive)

Question: What about the GI50 [3] of the same compound?
Answer: 17.3 µM

Question: And the GI50 [4]?
Answer: 19.1 µM (inactive)

Question: And the GI50 [5]?
Answer: 24.3 µM (inactive)

Question: And the GI50 [6]?
Answer: 30.6 µM (inactive)

Question: And the GI50 [8]?
Answer: 28500 nM (inactive)

Question: And the GI50 [9]?
Answer: 27000 nM (inactive)

Question: What about the GI50 [10] of the same compound?
Answer: 89.7 µM (inactive)

Question: And the GI50 [11]?
Answer: 24.9 µM (inactive)

Question: What about the GI50 [40] of the same compound?
Answer: 20.6 µM (inactive)

Question: What about the GI50 [12] of the same compound?
Answer: 22.5 µM (inactive)

Question: What about the GI50 [13] of the same compound?
Answer: 25.6 µM (inactive)

Question: What about the GI50 [14] of the same compound?
Answer: 25200 nM (inactive)

Question: And the GI50 [15]?
Answer: 24.6 µM (inactive)

Question: And the GI50 [16]?
Answer: 8.53 µM (inactive)

Question: What about the GI50 [17] of the same compound?
Answer: 30 µM (inactive)

Question: What about the GI50 [41] of the same compound?
Answer: 1.65 µM (inactive)

Question: And the GI50 [18]?
Answer: 49700 nM (inactive)

Question: And the GI50 [42]?
Answer: 5.79 µM (inactive)

Question: What about the GI50 [19] of the same compound?
Answer: 37.3 µM (inactive)

Question: What about the GI50 [20] of the same compound?
Answer: 1520 nM (inactive)

Question: And the GI50 [43]?
Answer: 43.1 µM (inactive)

Question: What about the GI50 [21] of the same compound?
Answer: 19.8 µM (inactive)

Question: What about the GI50 [22] of the same compound?
Answer: 33.2 µM (inactive)

Question: And the GI50 [23]?
Answer: 16.7 µM (inactive)

Question: What about the GI50 [44] of the same compound?
Answer: 33.6 µM (inactive)

Question: And the GI50 [25]?
Answer: 30.5 µM (inactive)

Question: And the GI50 [45]?
Answer: 37.4 µM (inactive)

Question: What about the GI50 [46] of the same compound?
Answer: 18.5 µM (inactive)

Question: And the GI50 [26]?
Answer: 14.8 µM (inactive)

Question: And the GI50 [27]?
Answer: 23.7 µM (inactive)

Question: What about the GI50 [29] of the same compound?
Answer: 43.5 µM (inactive)

Question: And the GI50 [47]?
Answer: 10.6 µM (inactive)

Question: And the GI50 [48]?
Answer: > 100 µM (inactive)

Question: What about the GI50 [49] of the same compound?
Answer: 25.4 µM (inactive)

Question: And the GI50 [50]?
Answer: 22.3 µM (inactive)

Question: And the GI50 [51]?
Answer: 32.3 µM (inactive)

Question: And the GI50 [52]?
Answer: 40.6 µM (inactive)

Question: What about the GI50 [53] of the same compound?
Answer: 15.9 µM (inactive)

Question: What about the GI50 [54] of the same compound?
Answer: > 100 µM (inactive)

Question: And the GI50 [30]?
Answer: 12.9 µM (inactive)

Question: What about the GI50 [31] of the same compound?
Answer: 10.9 µM (inactive)

Question: What about the GI50 [32] of the same compound?
Answer: 31.6 µM (inactive)

Question: And the GI50 [33]?
Answer: 17100 nM (inactive)

Question: What about the GI50 [34] of the same compound?
Answer: 41.8 µM (inactive)

Question: And the GI50 [35]?
Answer: 39.2 µM (inactive)

Question: And the GI50 [36]?
Answer: 28.6 µM (inactive)

Question: And the GI50 [37]?
Answer: 21 µM (inactive)

Question: Which results are given for `CC(Nc1n[nH]c(=O)c2c1nnn2Cc1ccccc1)c1ccccc1` (configuration not stated)?
Answer: GI50 [38]: > 100 µM (inactive) and 57.8 µM (inactive); GI50 [2]: 18.6 µM (inactive) and 34.1 µM (inactive); GI50 [3]: > 100 µM; GI50 [4]: 24.3 µM (inactive) and 27.5 µM (inactive); GI50 [5]: > 100 µM (inactive); GI50 [7]: > 100 µM (inactive); GI50 [55]: 22.8 µM (inactive) and 23.9 µM (inactive); GI50 [8]: 17.3 µM (inactive) and 22.3 µM (inactive); GI50 [9]: 26.1 µM (inactive) and 37.1 µM (inactive); GI50 [10]: > 100 µM (inactive); GI50 [11]: > 100 µM (inactive); GI50 [13]: 72.8 µM (inactive); GI50 [14]: 18.8 µM (inactive) and 21.5 µM (inactive); GI50 [15]: > 100 µM (inactive) and 53.5 µM (inactive); GI50 [17]: 16.5 µM (inactive); GI50 [18]: > 100 µM (inactive) and 55.1 µM (inactive); GI50 [19]: 23.8 µM (inactive) and 36 µM (inactive); GI50 [20]: 31.9 µM (inactive) and 29.1 µM (inactive); GI50 [21]: > 100 µM (inactive); GI50 [23]: 52.7 µM (inactive); GI50 [44]: 50.6 µM (inactive) and 71 µM (inactive); GI50 [25]: > 100 µM (inactive); GI50 [26]: > 100 µM (inactive); GI50 [27]: 12.2 µM (inactive); GI50 [30]: 56.9 µM (inactive) and 37.2 µM (inactive); GI50 [31]: > 100 µM (inactive); GI50 [33]: 77.4 µM (inactive) and 96.2 µM (inactive); GI50 [34]: 34.4 µM (inactive) and 17.8 µM (inactive)

Question: What does the source list for `CC(C)(/N=N/C(C)(C)C1=NCCN1)C1=NCCN1`?
Answer: GI50 [2]: > 100 µM (inactive); GI50 [56]: > 100 µM (inactive); GI50 [55]: > 100 µM (inactive); GI50 [19]: > 100 µM (inactive); GI50 [48]: > 100 µM (inactive); GI50 [37]: > 100 µM (inactive)
